pIC50: −log10 of the molar value.
How the values were obtained:
ErbB2 = target: T1, ErbB2 (Homo sapiens, UniProt P04626); experiment: ErbB-2 substrate phosphorylation assay (HTRF); type: biochemical
T1 construct: made in house; host or cells: baculovirus expression system
Summary of the method: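 Baculovirus-expressed EGFR (0.8 nM) or ErbB2 (10 nM) in enzyme mix, preincubated 1 h at 20 °C with compound (0.00027–47.6 μM final), then 90 min at 20 °C with substrate mix of 20 μM ATP, 0.8 uM biotinylated Peptide C, MnCl2, MOPS pH 7.5. Phosphotyrosine by HTRF; pIC50 reported.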

HN5 tumor cells = experiment: Cell growth inhibition assay (CellTiter-Glo), HN5; type: cell-based, Human; details: Homo sapiens, 72 h; 3 days incubation
Summary of the method: (§1)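 Cells plated at 500 cells/well in their growth media, dosed next day with nine-step 1:3 compound dilutions (final DMSO 0.2%), then incubated 3 days at 37° C, 5% CO2. Total ATP read by CellTiter-Glo luminescence as a surrogate for cell number; IC50 interpolated from 4-parameter fit versus DMSO controls.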

SK-MEL-28 tumor cells = experiment: Cell growth inhibition assay (CellTiter-Glo), SK-MEL-28; type: cell-based, Human; details: Homo sapiens, SK-MEL-28, 72 h; 3 days incubation
Summary of the method: as §1

A375P F11s tumor cells = experiment: Cell growth inhibition assay (CellTiter-Glo), A375P F11s; type: cell-based, Human; details: Homo sapiens
Summary of the method: as §1

T1 sequence (P04626 23-1255): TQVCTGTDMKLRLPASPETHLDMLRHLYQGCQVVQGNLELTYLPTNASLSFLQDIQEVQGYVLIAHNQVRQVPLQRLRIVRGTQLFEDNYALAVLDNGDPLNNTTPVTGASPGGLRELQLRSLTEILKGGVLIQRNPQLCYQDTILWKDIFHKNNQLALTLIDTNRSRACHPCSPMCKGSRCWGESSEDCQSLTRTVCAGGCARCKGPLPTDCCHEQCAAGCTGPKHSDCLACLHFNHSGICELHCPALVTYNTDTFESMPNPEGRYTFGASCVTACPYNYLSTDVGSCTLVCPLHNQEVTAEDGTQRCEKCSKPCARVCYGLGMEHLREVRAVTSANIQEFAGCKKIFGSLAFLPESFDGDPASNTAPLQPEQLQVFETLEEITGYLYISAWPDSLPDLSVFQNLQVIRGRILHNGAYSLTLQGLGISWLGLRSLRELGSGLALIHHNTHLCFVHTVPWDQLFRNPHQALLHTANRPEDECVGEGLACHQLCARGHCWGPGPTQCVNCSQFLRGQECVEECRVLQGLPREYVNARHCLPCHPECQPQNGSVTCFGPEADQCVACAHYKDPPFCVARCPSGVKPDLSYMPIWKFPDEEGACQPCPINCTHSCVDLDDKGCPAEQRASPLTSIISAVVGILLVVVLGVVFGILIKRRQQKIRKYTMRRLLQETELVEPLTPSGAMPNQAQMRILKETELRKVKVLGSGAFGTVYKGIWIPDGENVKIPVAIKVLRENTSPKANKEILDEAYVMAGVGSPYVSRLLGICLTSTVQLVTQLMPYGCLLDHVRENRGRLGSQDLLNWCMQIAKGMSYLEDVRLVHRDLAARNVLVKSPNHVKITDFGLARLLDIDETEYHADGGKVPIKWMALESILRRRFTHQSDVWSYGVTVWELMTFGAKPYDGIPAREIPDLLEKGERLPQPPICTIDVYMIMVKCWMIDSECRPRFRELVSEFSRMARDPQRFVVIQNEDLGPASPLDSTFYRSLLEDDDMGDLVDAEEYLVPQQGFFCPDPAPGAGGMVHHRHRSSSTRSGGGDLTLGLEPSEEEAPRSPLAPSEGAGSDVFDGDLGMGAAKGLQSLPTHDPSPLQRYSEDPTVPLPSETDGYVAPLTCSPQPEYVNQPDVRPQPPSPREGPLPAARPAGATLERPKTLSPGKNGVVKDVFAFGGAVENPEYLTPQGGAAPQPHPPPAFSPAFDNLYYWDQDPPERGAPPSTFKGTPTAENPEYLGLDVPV

pIC50 (ErbB2) | pIC50 (HN5 tumor cells) | pIC50 (SK-MEL-28 tumor cells) | pIC50 (A375P F11s tumor cells) | SMILES
< 6.00 | 6.00 to 7.00 | > 7.00 | > 7.00 | Cc1nc(-c2cccc(NS(=O)(=O)c3c(F)cccc3F)c2)c(-c2ccnc(Nc3ccc(N4CCOCC4)nc3)n2)s1 [Example 133]
< 6.00 | < 6.00 | > 7.00 | > 7.00 | CS(=O)(=O)c1cccc(Nc2nccc(-c3sc(N4CCOCC4)nc3-c3cccc(NS(=O)(=O)c4c(F)cccc4F)c3Cl)n2)c1 [Example 145]
< 6.00 | > 7.00 | > 7.00 | > 7.00 | O=S(=O)(Nc1cccc(-c2nc(N3CCOCC3)sc2-c2ccnc(Nc3ccc(N4CCOCC4)nc3)n2)c1Cl)c1c(F)cccc1F [Example 146]
6.00 to 7.00 | 6.00 to 7.00 | > 7.00 | > 7.00 | CCNc1nc(-c2cccc(NS(=O)(=O)c3c(F)cccc3F)c2)c(-c2ccnc(Nc3ccc(N4CCOCC4)nc3)n2)s1 [Example 152]
6.00 to 7.00 | 6.00 to 7.00 | > 7.00 | > 7.00 | O=S1(=O)Cc2ccc(Nc3nccc(-c4sc(N5CCOCC5)nc4-c4cccc(NS(=O)(=O)c5c(F)cccc5F)c4F)n3)cc2C1 [Example 155]
< 6.00 | < 6.00 | > 7.00 | > 7.00 | COc1ccc(S(C)(=O)=O)cc1Nc1nccc(-c2sc(N3CCOCC3)nc2-c2cccc(NS(=O)(=O)c3c(F)cccc3F)c2F)n1 [Example 157]
6.00 to 7.00 | > 7.00 | > 7.00 | > 7.00 | Cc1cc(Nc2nccc(-c3sc(C(C)(C)C)nc3-c3cccc(NS(=O)(=O)c4c(F)cccc4F)c3F)n2)ccn1 [Example 159]
< 6.00 | 6.00 to 7.00 | > 7.00 | > 7.00 | O=S(=O)(Nc1cccc(-c2ncsc2-c2ccnc(Nc3ccc(N4CCOCC4)nc3)n2)c1)c1c(F)cccc1F [Example 162]
> 7.00 | 6.00 to 7.00 | > 7.00 | 6.00 to 7.00 | CCNc1nc(-c2ccc(F)c(NS(=O)(=O)c3c(F)cccc3F)c2)c(-c2ccnc(Nc3ccc(N4CCOCC4)nc3)n2)s1 [Example 166]
> 7.00 | 6.00 to 7.00 | > 7.00 | > 7.00 | CS(=O)(=O)CCN1CCN(c2ccc(Nc3nccc(-c4oc(N5CCCC5)nc4-c4cccc(NS(=O)(=O)c5c(F)cccc5F)c4F)n3)cc2F)CC1 [Example 167]

SMILES | pIC50 (ErbB2) | pIC50 (HN5 tumor cells) | pIC50 (SK-MEL-28 tumor cells) | pIC50 (A375P F11s tumor cells)
O=S(=O)(Nc1cccc(-c2nc(N3CCCCC3)sc2-c2ccnc(Nc3ccc(N4CCOCC4)nc3)n2)c1)c1c(F)cccc1F [Example 151] | < 6.00 | 6.00 to 7.00 | > 7.00 | > 7.00
